Source: patent US20240309090A1, “MODULATION OF ANDROGEN SIGNALING TO INNATE IMMUNE KILLING OF PROSTATE CANCER” (Brown University, priority 2023, published 2024)
“Also recorded” adds a separate entry of the source.

Experiments:
Format in all cases: cell-based
[1] = system: PC3 cell line; test: Flow cytometry of HLA-E surface expression on AR-negative PC3; settings: non-AR-transduced PC3
Text: (§1) To evaluate the modulation of the androgen receptor and tumor HLA-E expression, we astably transduced AR negative cell lines PC3 and DU145 with an Androgen Response Element (ARE) GFP reporter (FIG. 16H). […] Using AR+ constructed cell lines, PC3 and DU145, we sought to determine the dependence of HLA-E expression and possible modulation by AR. […] Although potential therapies targeting immune enhancement are being explored, the expression of exhaustion markers such as PD-1, NKG2A, and potential engaging ligands that diminish their cytotoxic function limits their application. Exploring these factors with new combination approaches, such as ARi and anti-NKG2A, and understanding the modulation of its targets upon treatment is key in overcoming immune-resistant scenarios, especially in prostate cancer.
Experiments were conducted with noncytotoxic doses of vorinostat (0.3 μM) and panobinostat (3 nM).
(§2) PCa cells were plated at a density of 3×10^5 cells per well of a 6-well plate and adhered overnight. […] After treatment, cells were trypsinized, stained, and incubated (Cell Staining Buffer SouthernBiotech #0225-01S) with the corresponding antibody for 45-60 min at 4° C. Viability dye was added with each run. NK-92 cells and patient-derived cells were stained similarly. Markers used for experiments included: Thermofisher HLA-E Monoclonal Antibody (3D12HLA-E), Alexa Fluor™ 488, eBioscience™, CD274 (PD-L1, B7-H1) Monoclonal Antibody (MIH1), eFluor™ 450, eBioscience™, Cell Signaling PD-1 (D4W2J) XPR Rabbit mAb, SYTOX™ Orange Dead Cell Stain, for flow cytometry, BioLegend APC anti-human CD159a (NKG2A) Antibody #375108, BioLegend APC anti-human CD69 Antibody #310909, BioLegend Alexa Fluor® 647 anti-human CD137 (4-1BB) [4B4-1] #309823. For staining of the patient-derived PBMCs and subsequent NK cell characterization, the following antibodies were used: BioLegend Anti-Perforin Mouse Monoclonal Antibody (PerCP Cy5.50, clone: dG9) #308113, BioLegend Anti-Granzyme B Mouse Monoclonal Antibody (FITC, clone: GB11) #515403, BioLegend Anti-CD56 Mouse Monoclonal Antibody (Alexa Fluor® 700, clone: 5.1H1) #362521, and BioLegend (PE anti-human CD45 Antibody) #304008.

[2] = system: DU145; test: Flow cytometry of HLA-E surface expression on non-AR-transduced DU145
Text: as §1
(§3) PCa cells were plated at a density of 3×10^5 cells per well of a 6-well plate and adhered overnight. […] After treatment, cells were trypsinized, stained, and incubated (Cell Staining Buffer SouthernBiotech #0225-01S) with the corresponding antibody for 45-60 min at 4° C. Viability dye was added with each run. NK-92 cells and patient-derived cells were stained similarly. […]

[3] = system: AR-transduced PC3-AR and DU145 cell lines; test: Flow cytometry of HLA-E surface expression on AR-transduced PC3 and DU145
Text: as §1, §3

[4] = system: PCa cell lines (DU145, 22Rv1, LNCaP, PC3); test: Western blot of apoptotic and antiapoptotic proteins in PCa cell lines; settings: for expression of Bcl-XL: 22Rv1; for expression of c-IAP2: DU145 cells and LNCaP; for Survivin levels: LNCaP; for expression of MCL-1: any cell lines
Protocol: We investigated the effects of ARi on PCa cells' expression of Bcl-2 proteins and cytokine secretion to assess a possible priming effect of treatment, making these cells susceptible to NK cell killing. Enzalutamide (5, 10, and 15 μM) and darolutamide (10, 20 μM) reduced the expression of the X-linked inhibitor of apoptosis (XIAP) in DU145, 22Rv1, and LNCaP cell lines (FIG. 14A-B). Western Blot analysis of apoptotic and antiapoptotic proteins on the PCa cell lines with darolutamide (10 and 20 μM) and enzalutamide ([…]) for 48 h. Treatment with ARi on the PCa cell lines evidenced changes in both pro and antiapoptotic proteins, irrespective of ARi sensitivity. The changes in protein expression were not similar in the PCa cell lines and cannot explain a single mechanism of tumor cell priming for NK cell killing.
Anti-apoptotic proteins and androgen receptor expression in prostate cancer cell lines and immune cells (NK-92) were examined using a western blot. A total of 1×10^5 cells were plated and incubated in a 6 or 12-well plate ([…] 229111 and 229105) for 24 hours to allow the cells to adhere (tumor cells). Treatment conditions were added after cell adhesion or in conjunction with NK cells when these were analyzed. Cells were harvested and lysed using RIPA buffer containing protease inhibitor (Cell Signaling Technology 9806S) and phosphatase inhibitor (PHOSS-RO Roche 4906845001). Denaturing sample buffer was added, and samples were boiled at 95° C. for 10 minutes and an equal amount of protein lysate (10-20 ug) was electrophoresed through 4-12% SDS-PAGE gels (Invitrogen) and then transferred to PVDF membranes. The membrane was blocked with 5% milk in 1×TTBS and incubated overnight with the appropriate primary antibody (Cell Signaling c-IAP2 58C7 Rabbit mAb #3130; Cell Signaling XIAP Antibody #2042; Cell Signaling Mcl-1 (D2W9E) Rabbit mAb #94296; Cell Signaling Survivin (71G4B7) Rabbit mAb; Cell Signaling Ran Antibody #4462; Cell Signaling PARP 9542T mAb; Cell Signaling Bcl-2 Antibody #2876; Cell Signaling Bcl-xL (54H6) Rabbit mAb; Sigma Aldrich Monoclonal Anti-B-Actin antibody #A5441; Cell Signaling Androgen Receptor (E3S4N) Rabbit mAb (Carboxy-terminal Antigen) #70317). The primary antibody membranes were incubated in the appropriate HRP-conjugated secondary antibody (either mouse, Thermo Scientific #31430, or rabbit, Thermo Scientific #31460) for two hours. The levels of antibody binding were detected using ECL western blotting detection reagent and the Syngene imaging system.

[5] = system: NK cells; test: Flow cytometry of NKG2A and PD-1 surface expression on NK cells
Protocol: as §2
Methods: PCa cell lines (LNCaP, 22Rv1 [ARv7 mutation], DU145[AR-], PC3 [AR-]) were cocultured with NK-92 cells and treated with ARi (enzalutamide [enza] and darolutamide [daro]) or in combination with anti-NKG2A antibody monalizumab. Immune cell-mediated tumor cell killing assays and multiplexed cytokine profiling were performed. NKc expression of NKG2A and PCa cells expression of HLA-E were investigated by flow cytometry. The AR-negative cell lines (PC3 and DU145) were stably transduced with a functional AR pathway to evaluate the modulation of HLA-E by AR. The activation status of peripheral blood NKc isolated from patients with PCa before and post-initiation of androgen deprivation therapy (ADT) was investigated by flow cytometry.

[6] = DU145, 22Rv1, LNCaP, enzalutamide 5, 10, 15 μM, darolutamide 10, 20 μM, 48 h

| Compound | HLA-E expression [1] [%] | HLA-E expression [2] [%] | HLA-E surface expression upon ARi ([3]; AR-responsive PC3-AR) | HLA-E surface expression upon ARi ([3]; AR-transduced (AR-responsive) DU145) | expression of Bcl-XL [4] | expression of Bcl-XL ([4]; listed as Darolutamide) | expression of XIAP [4, 6] | expression of XIAP ([4]; DU145, 22Rv1, LNCaP, enzalutamide 5, 10, 15 μM, darolutamide 10, 20 μM, 48 h, listed as Darolutamide) | expression of c-IAP2 [4] | expression of c-IAP2 ([4]; listed as Darolutamide) | Survivin levels [4] | Survivin levels ([4]; listed as Darolutamide) | expression of XIAP ([4]; PC3) | expression of MCL-1 [4] | surface expression of NKG2A [5] | expression of Bcl-XL ([4]; listed as Enzalutamide) | expression of c-IAP2 ([4]; listed as Enzalutamide) | Survivin levels ([4]; listed as Enzalutamide) |
| --- | --- | --- | --- | --- | --- | --- | --- | --- | --- | --- | --- | --- | --- | --- | --- | --- | --- | --- |
| CC(O)c1cc(C(=O)N[C@@H](C)Cn2ccc(-c3ccc(C#N)c(Cl)c3)n2)n[nH]1 (stereo partly shown) [darolutamide] | 15.47 | 1.23 | increased | increased | reduced | lower levels | reduced; also recorded: more pronounced | reduced levels | reduced | reduced levels | decreased | lower levels | did not change | no significant change | modulate |  |  |  |
| CNC(=O)c1ccc(N2C(=S)N(c3ccc(C#N)c(C(F)(F)F)c3)C(=O)C2(C)C)cc1F [enzalutamide] |  |  |  |  | reduced |  | reduced levels |  | reduced |  | decreased |  | did not change | no significant change | modulate | lower levels | reduced levels | lower levels |
